Source: the SangsterLogP compilation

Assay: method code SF-AS, from DOI: 10.1002/zfch.19860260715
Conditions: pH 7.4

Compound | logD
CCOc1ccc(NC(=O)NNC(C)=O)cc1 | 0.55
CC(=O)NNC(=O)Nc1ccc(N(C)C)cc1 | 0.11
CC(=O)NNC(=O)Nc1ccc(Oc2ccccc2)cc1 | 2.09
CC(=O)NNC(=O)Nc1ccc(C#N)cc1 | 0.37
CC(=O)NNC(=O)Nc1ccc(C(C)(C)C)cc1 | 2.14
CC(=O)NNC(=O)Nc1ccc(C)cc1 | 0.76

Further lines, results first:

logD | Compound
0.06 | COc1ccc(NC(=O)NNC(C)=O)cc1
0.39 | COc1cccc(NC(=O)NNC(C)=O)c1
1.63 | CC(=O)NNC(=O)Nc1cccc(C(F)(F)F)c1
0.77 | CC(=O)NNC(=O)Nc1cccc(C)c1
